Among the data in ChEMBL document CHEMBL1201862, “PubChem BioAssay data set” (2004) are AC50, EC50 and IC50 values, retold here.

Experiment [1] in a line: general cell-killing toxicity readout – plate reader, dry powder samples, cytotoxicity control for PAX8 inhibitor project, dose response (AID 743021). In kind it is functional, cell-based.
The target of the next experiment is Paired box protein Pax-8 (Homo sapiens, UniProt Q06710). Put plainly: PAX8 transcriptional activity inhibition in RMG-I – RMG-I cells, luciferase, cherry-pick, dose response (AID 687027).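 Also: luciferase reporter driven by Pax8 target thyroperoxidase promoter measured by SteadyGlo luminescence.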 The class given is functional, cell-based.
Experiment [2] deals with T1, DNA repair protein RAD52 homolog (Homo sapiens, UniProt P43351).
T1 sequence (P43351 whole entry): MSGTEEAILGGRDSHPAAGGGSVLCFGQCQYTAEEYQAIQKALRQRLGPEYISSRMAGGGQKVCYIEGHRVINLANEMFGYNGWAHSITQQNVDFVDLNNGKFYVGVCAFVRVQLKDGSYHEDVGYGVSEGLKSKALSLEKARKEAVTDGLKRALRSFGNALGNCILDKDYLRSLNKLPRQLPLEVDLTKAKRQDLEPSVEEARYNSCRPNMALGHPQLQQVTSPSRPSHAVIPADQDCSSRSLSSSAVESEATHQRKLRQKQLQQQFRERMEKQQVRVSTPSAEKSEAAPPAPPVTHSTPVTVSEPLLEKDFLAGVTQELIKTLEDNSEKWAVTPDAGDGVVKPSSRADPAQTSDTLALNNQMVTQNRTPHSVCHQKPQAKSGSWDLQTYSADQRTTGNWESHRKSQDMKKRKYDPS
In kind it is functional, biochemical.

The target in a further experiment is Melanocortin receptor 4 (Homo sapiens, UniProt P32245). In kind it is functional, cell-based.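 Also: Cell-based assay with luminescence read-out, confirmatory dose-response testing for agonist activity of biased ligands at MC4R; human U2OS cells with tagged receptor and beta-arrestin; potency of agonists that increase receptor coupling to beta-arrestin.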
The target of experiment [3] is Disintegrin and metalloproteinase domain-containing protein 17 (Homo sapiens, UniProt P78536). Put plainly: exosite inhibitors of ADAM17, dose response, biochemical (AID 743260).
The nature of experiment [4]: inhibition of ADAM10 peptide cleavage – biochemical, FRET peptide substrate, recombinant human ADAM10, selectivity assay for ADAM17 exosite inhibitor project, dose response (AID 743259).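 Also: ADAM10 enzyme cleaving a FRET peptide substrate.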
Experiment [5] addresses T2, Sentrin-specific protease 8 (Homo sapiens, UniProt Q96LD8).
T2 sequence (Q96LD8 whole entry): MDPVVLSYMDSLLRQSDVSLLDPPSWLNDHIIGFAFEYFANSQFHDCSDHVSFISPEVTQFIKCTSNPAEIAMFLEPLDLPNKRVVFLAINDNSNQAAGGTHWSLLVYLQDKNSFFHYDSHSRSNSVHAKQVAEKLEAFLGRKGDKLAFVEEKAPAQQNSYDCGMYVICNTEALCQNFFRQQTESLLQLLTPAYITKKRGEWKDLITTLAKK
In kind it is functional.

Experiment [6] concerns the target T2, Sentrin-specific protease 8. The class given is functional. This is another data set of the same source.
The nature of experiment [7]: Luminescence-based cell-based high throughput dose response assay to identify activators of the DAF-12 from the parasite S. stercoralis (ssDAF-12). In kind it is functional.
A short description of experiment [8]: viability loss of HPDE-C7K cells – cell-based, fluorescence, HTS, primary screen (AID 431). In kind it is functional. Conditions: Homo sapiens.
For experiment [9], the target named is T3, Oxysterols receptor LXR-beta (Homo sapiens, UniProt P55055).
T3 sequence (P55055 whole entry): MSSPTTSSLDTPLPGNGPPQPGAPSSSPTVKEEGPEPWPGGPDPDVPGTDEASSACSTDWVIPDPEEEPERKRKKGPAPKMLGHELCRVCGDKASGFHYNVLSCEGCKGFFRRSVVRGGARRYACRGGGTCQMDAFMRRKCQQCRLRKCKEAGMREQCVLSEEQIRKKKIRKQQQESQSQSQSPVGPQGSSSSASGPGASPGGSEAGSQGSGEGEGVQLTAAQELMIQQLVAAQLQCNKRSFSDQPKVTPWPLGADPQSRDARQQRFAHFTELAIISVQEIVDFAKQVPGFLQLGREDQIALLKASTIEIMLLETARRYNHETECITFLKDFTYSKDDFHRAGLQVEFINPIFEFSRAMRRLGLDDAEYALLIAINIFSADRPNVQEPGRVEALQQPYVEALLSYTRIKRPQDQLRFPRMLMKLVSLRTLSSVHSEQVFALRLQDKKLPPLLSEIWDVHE
Put plainly: LXR agonists, Gal4 luciferase reporter, dose response, counter-screen for ssDAF-12 agonist project, cell-based, luminescence, HEK293, S. stercoralis campaign (AID 720737). The class given is functional. The conditions noted are these: read-out: IC50 (the source's name). (A reporter such as luciferase makes a cellular process visible.)

Experiment [10] is described as follows: HPDE-C7 pancreatic duct cell viability loss – fluorescence, HTS (AID 430). The class given is functional, cell-based. The conditions noted are these: Homo sapiens.
A short description of experiment [11]: inhibitors acting on PAX2 in cells – cell-based, plate reader, dry powder samples, selectivity assay for PAX8 inhibitor project, dose response (AID 743048).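 Also: HEK293 cells carrying a WT1 promoter luciferase reporter driven by expressed Pax2; potency is for inhibition of Pax2 driven reporter signal.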 In kind it is functional.
A short description of experiment [12]: PAX8-dependent cell viability loss – plate reader, dry powder, dose response (AID 743049). In kind it is functional, cell-based.
The nature of experiment [13]: OV-90 cell viability loss – plate reader, dry powder, SA8, PAX8 inhibitor project, dose response (AID 743149). The class given is functional, cell-based.
Experiment [14] is described as follows: PAX5 cellular inhibition readout – cell-based, plate reader, dry powder samples, selectivity assay for PAX8 inhibitor project, dose response (AID 743047).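 Also: HEK293 cells carrying a Pax5 driven CD19 promoter luciferase reporter; potency of inhibitors that lower reporter luminescence.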 The class given is functional.
Experiment [15] is described as follows: COV362 cell viability loss – plate reader, dry powder, SA12, cytotoxicity control for PAX8 inhibitor project, dose response (AID 743144). In kind it is functional, cell-based.
Experiment [16] addresses T3, Oxysterols receptor LXR-beta. In kind it is functional, cell-based.

By AC50 is commonly meant the concentration giving half of the maximal activity seen. As usually defined, the IC50 is the concentration at which inhibition is half-maximal.

Activity calls are given as the source filed them.

Disintegrin and metalloproteinase domain-containing protein 17, sequence (P78536 whole entry, the tested form may be a part): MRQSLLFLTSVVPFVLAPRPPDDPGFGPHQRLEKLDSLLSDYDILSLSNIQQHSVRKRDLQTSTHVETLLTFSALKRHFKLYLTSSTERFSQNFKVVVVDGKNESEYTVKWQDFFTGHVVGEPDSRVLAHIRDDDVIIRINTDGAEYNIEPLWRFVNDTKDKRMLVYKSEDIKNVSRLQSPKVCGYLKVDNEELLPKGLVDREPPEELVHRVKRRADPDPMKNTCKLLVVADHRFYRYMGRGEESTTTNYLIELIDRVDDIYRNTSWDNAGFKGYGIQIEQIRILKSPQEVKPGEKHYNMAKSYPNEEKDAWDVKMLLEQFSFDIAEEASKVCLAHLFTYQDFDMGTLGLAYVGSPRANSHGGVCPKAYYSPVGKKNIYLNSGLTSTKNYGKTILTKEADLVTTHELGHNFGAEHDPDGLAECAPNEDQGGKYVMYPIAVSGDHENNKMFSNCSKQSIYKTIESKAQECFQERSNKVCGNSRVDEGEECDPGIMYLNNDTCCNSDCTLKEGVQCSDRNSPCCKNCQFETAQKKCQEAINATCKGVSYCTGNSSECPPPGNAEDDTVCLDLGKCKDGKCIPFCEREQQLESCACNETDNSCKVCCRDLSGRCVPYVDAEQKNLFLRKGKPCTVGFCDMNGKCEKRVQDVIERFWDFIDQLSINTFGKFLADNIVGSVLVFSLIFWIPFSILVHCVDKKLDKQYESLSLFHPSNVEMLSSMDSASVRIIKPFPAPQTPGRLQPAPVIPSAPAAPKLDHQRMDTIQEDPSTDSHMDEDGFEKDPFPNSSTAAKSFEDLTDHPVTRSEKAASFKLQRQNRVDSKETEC
Paired box protein Pax-8, sequence (Q06710 whole entry): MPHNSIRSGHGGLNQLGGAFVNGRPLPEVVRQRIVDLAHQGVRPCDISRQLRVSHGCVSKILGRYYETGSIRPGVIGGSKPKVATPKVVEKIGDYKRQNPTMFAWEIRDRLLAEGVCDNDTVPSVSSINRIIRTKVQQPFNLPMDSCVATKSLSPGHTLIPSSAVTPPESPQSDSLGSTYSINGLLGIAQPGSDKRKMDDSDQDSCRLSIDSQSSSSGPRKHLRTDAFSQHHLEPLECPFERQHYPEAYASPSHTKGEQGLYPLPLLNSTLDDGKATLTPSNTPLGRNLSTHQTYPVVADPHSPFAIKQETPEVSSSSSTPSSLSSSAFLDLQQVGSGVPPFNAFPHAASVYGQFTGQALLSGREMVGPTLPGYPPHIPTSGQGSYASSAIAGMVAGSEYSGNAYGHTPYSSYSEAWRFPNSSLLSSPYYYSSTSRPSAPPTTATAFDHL
Melanocortin receptor 4, sequence (P32245 whole entry, the tested form may be a part): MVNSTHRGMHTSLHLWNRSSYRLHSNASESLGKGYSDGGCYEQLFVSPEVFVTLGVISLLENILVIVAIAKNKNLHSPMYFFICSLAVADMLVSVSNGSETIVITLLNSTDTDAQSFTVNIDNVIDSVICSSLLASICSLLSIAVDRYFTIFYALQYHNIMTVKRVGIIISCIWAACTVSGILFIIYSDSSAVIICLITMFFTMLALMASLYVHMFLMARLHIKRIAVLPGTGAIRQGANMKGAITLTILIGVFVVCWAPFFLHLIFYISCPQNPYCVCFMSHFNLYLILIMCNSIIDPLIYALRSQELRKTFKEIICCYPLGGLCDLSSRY

As to `CN(C)CCNC(=O)c1cccc(-c2cnc3c(NC=O)cc(-c4cccc(C(F)(F)F)c4)cn23)c1`, the figures for the AC50 (in experiment [1]; at Paired box protein Pax-8; in [2]) were 54.8 µM (active), 9.07 µM (active) and 2.4 µM (active), respectively. In addition, the EC50 on Melanocortin receptor 4 was > 89.2 µM (inactive).
For `CCOC(=O)N1CCN(C(=O)C[C@H]2C[C@@]3(C(=O)OC)C(=C[C@H](C(C)C)O[C@@H]3C3CC3)N(Cc3ccc(Cl)cc3Cl)C2=O)CC1`, the IC50 in experiment [3] is > 69.5 µM (inactive); in [4], 16.4 µM (inactive).
Regarding `CC(=O)Nc1ccc(NC(=O)COC(=O)c2ccc([N+](=O)[O-])o2)cc1`, the values for the IC50 in experiment [5] and in experiment [6] were 11.8 µM (active) and 7.03 µM (active), respectively.
`Cc1ccc2nc(-c3ccccc3)cc(O)c2c1`: the IC50 in experiment [7] was > 67.5 µM (inactive). The values for the EC50 in experiment [8], in experiment [9] and in [10] were 1.14 µM (active), > 67.5 µM (inactive) and 0.91 µM (active), respectively.
As for `COc1cccc(C#Cc2ccc([C@H]3[C@@H](C#N)N(C(=O)c4ccccn4)[C@@H]3CO)cc2)c1`, the AC50 in [11] is 14.1 µM (active); in experiment [12], 47.3 µM (active); in experiment [13], > 70 µM (inactive); in experiment [14], 15.2 µM (active); at Paired box protein Pax-8, 15 µM (active); in experiment [15], 43.7 µM (active).
For `CCOC(=O)c1ccc(NC(=O)C2CCCN(S(=O)(=O)c3ccc(F)cc3)C2)cc1` (stereo not given), the IC50 was > 69.5 µM (inactive) in experiment [3] and > 7.72 µM (active) in experiment [4].
With `COc1ccc2c(=O)c(-c3nc(C)cs3)coc2c1`, the EC50 (in [16]; in the experiment “cells”) was > 67.5 µM (inactive) each time.
On to `CCc1ccc(NC(=O)CO/N=C(\C)c2cc3ccccc3o2)cc1`, for which the IC50 in [3] and in experiment [4] was > 69.5 µM (inactive) throughout.
Consider `C[C@@H]1CCCCO[C@H](CN(C)C)[C@H](C)CN([C@@H](C)CO)C(=O)c2cc(NS(=O)(=O)c3ccc(Cl)cc3)ccc2O1`, for which, in experiment [1], the AC50 was 1.71 µM (active).
